Tests used:
wildtype HIV-1 protease = target: T1, wildtype HIV-1 protease (Human immunodeficiency virus type 1 group M subtype B, UniProt P04585); experiment: Assay for inhibition of microbial expressed HIV protease (Pepcleav); type: biochemical; conditions: wildtype HIV-1 protease expressed in E. coli; peptide substrate; mean of at least two independent experiments
T1 construct: preincubated with the HIV-1 protease (wild type) enzyme in assay buffer; made in house; host or cells: Escherichia coli
Procedure: Assay for Inhibition of Microbial Expressed HIV Protease (“Pepcleav”)
Studies of the inhibition of the wildtype HIV-1 protease (which was expressed in Escherichia coli) were carried out with a peptide substrate [Val-Ser-Gln-Asn-(βnaphtyl)Ala-Pro-Ile-Val]. The inhibitor is first preincubated with the HIV-1 protease (wild type) enzyme in assay buffer (50 mM sodium acetate, pH 5.5, 100 mM NaCl, and 0.1% BSA) for 30 minutes at room temperature. Substrate is added to 400 micromolar in a total volume of 20 microliters containing 20 picomolar HIV-1 protease (final) and the reaction is incubated for 1 hour at 30° C. The reaction is quenched with the addition of formic acid and indinavir to 0.012% and 150 nM final concentrations, respectively. The product formation is determined after separation of product and substrate on a Zorbax Eclipse XDB-C18 column connected to an API 4000 mass spectrometer (Applied Biosystems) with multiple reaction monitoring (transitions were 644.5/428.9 and 615.4/422.2 (M1/M3) for product and indinavir respectively). The extent of inhibition of the reaction is determined from the peak area of the products. Analysis of the products, independently synthesized, provided quantitation standards and confirmation of the product composition.

HIV-1 (H9IIIB strain) = experiment: Cell-based HIV infection assay using a reporter (Cell-Based), MT4-GFP cells; conditions: Human immunodeficiency virus 1, MT4-GFP cells infected with HIV-1 H9IIIB; 50% normal human serum; mean of at least two independent experiments; read-out: Cell-based IP
In short: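 MT4-GFP cells (HIV LTR-driven GFP) infected 24 h with HIV-1 H9IIIB at low MOI, then washed and plated with compounds in RPMI + 50% normal human serum, 0.4% DMSO final. Green cells counted at 24 and 48 h; R0 = 48 h/24 h ratio, inhibition normalized to DMSO and triple-drug control; IC50 from 4-parameter fit.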

## N[C@H](C(=O)Nc1cncc(F)c1CC[C@H]1CNCCN1S(=O)(=O)c1ccccc1)C(c1ccc(F)cc1)c1ccc(F)cc1 [Example 22, (S)-2-amino-N-(5-fluoro-4-(2-((S)-1-(phenylsulfonyl)piperazin-2-yl)ethyl)pyridin-3-yl)-3,3-bis(4-fluorophenyl)propanamide]
Wildtype HIV-1 protease
  IC50: 0.0002 µM
HIV-1 (H9IIIB strain)
  IC50: 0.01 µM

## CS(=O)(=O)NC1CCN(S(=O)(=O)N2CCNC[C@@H]2CCc2c(F)cncc2NC(=O)C[C@@H](c2ccc(F)cc2)c2cc(F)cc(F)c2)CC1 [Example 334, (3S)-3-(3,5-difluorophenyl)-N-(5-fluoro-4-{2-[(2S)-1-({4-[(methylsulfonyl)amino]piperidin-1-yl}sulfonyl)piperazin-2-yl]ethyl}pyridin-3-yl)-3-(4-fluorophenyl)propanamide]
Wildtype HIV-1 protease
  IC50: 0.01 µM
HIV-1 (H9IIIB strain)
  IC50: 0.45 µM

## CS(=O)(=O)N1CCNC[C@@H]1CCc1c(F)cncc1NC(=O)[C@@H](N)C(c1ccc(F)cc1)c1ccc(F)cc1 [Example 1, 2S-Amino-3,3-di-(4-fluorophenyl)-N-(5-fluoro-4-(2-(1-methylsulfonylpiperazin-2-yl)ethyl)pyridin-3-yl)propanamide]
Wildtype HIV-1 protease
  IC50: 0.0097 µM
HIV-1 (H9IIIB strain)
  IC50: 0.067 µM

## CC(=O)NC1CCN(S(=O)(=O)N2CCNC[C@@H]2CCc2c(F)cncc2NC(=O)C[C@@H](c2ccc(F)cc2)c2cc(F)cc(F)c2)CC1 [Example 335, (3S)-N-(4-{2-[(2S)-1-{[4-(acetylamino)piperidin-1-yl]sulfonyl}piperazin-2-yl]ethyl}-5-fluroopyridin-3-yl)-3-(3,5-difluorophenyl)-3-(4-fluorophenyl)propanamide]
Wildtype HIV-1 protease
  IC50: 0.024 µM
HIV-1 (H9IIIB strain)
  IC50: 0.65 µM

## CS(=O)(=O)C1CCN(S(=O)(=O)N2CCNC[C@@H]2CCc2c(F)cncc2NC(=O)C[C@@H](c2ccc(F)cc2)c2cc(F)cc(F)c2)CC1 [Example 336, (3S)-3-(3,5-difluorophenyl)-N-(5-fluoro-4-{2-[(2S)-1-{[4-(methylsulfonyl)piperidin-1-yl]sulfonyl}piperazin-2-yl]ethyl}pyridin-3-yl)-3-(4-fluorophenyl)propanamide]
Wildtype HIV-1 protease
  IC50: 0.013 µM
HIV-1 (H9IIIB strain)
  IC50: 0.24 µM

## COC(=O)N[C@H](C(=O)Nc1cccc(F)c1CC[C@H]1CNCCN1S(=O)(=O)c1ccccc1)C(c1cccc(F)c1)c1cccc(F)c1 [Example 3, Methyl ((S)-1-((3-fluoro-2-(2-((S)-1-(phenylsulfonyl)piperazin-2-yl)ethyl)phenyl)amino)-3,3-bis(3-fluorophenyl)-1-oxopropan-2-yl)carbamate]
Wildtype HIV-1 protease
  IC50: 0.00048 µM
HIV-1 (H9IIIB strain)
  IC50: 0.004 µM
